According to patent publication US9820943B2, “Micronized amoxicillin” (DSM SINOCHEM PHARMACEUTICALS NETHERLANDS B.V., priority 2013, dated 2017):

Legend:
Format in all cases: physicochemical
[1] = Specific powder surface area by nitrogen gas sorption (BET); conditions: triplicate, trihydrate
Protocol: Specific powder surface area was determined using nitrogen gas sorption (Smartsorb, Smart Instruments, Mumbai, India). Prior to measurements, samples were regenerated by degassing to remove moisture and contamination. The regenerated sample was dipped in liquid nitrogen and the quantity of the adsorbed gas was measured using a thermal conductivity detector and subsequently integrated using an electronic circuit in terms of counts. The instrument was calibrated by injecting a known quantity of nitrogen. The measured parameters were subsequently used to calculate the surface area of the sample by employing the adsorption theories of Brunauer, Emmett and Teller (BET).
(§1) Parameters operated were: • Augar Speed: 5-90 rpm • Primary Air Pressure: 2-8 kg·cm^−2 • Secondary Air Pressure: 4-10 kg·cm^−2 The surface area (in triplicate), average particle size and contact angle (in quadruplicate) were determined as outlined in the General section. The purity of the amoxicillin trihydrate samples was 99.4±0.3% and were void of dichloromethane, isopropanol, pivalic acid and triethyl amine.

[2] = Contact angle by sessile drop method (water); conditions: ambient conditions, trihydrate
Protocol: Contact angles of amoxicillin trihydrate powder samples were measured by the sessile drop method using an Drop Shape Analyzer instrument (FTA 1000, First Ten Angstrom, Virginia, USA). Powder samples were mounted on double sided adhesive tape adhered to a glass slide and excess powder was removed by tapping the slide. A drop of probe liquid (water) was dispersed onto the sample surface and video images were captured by the FTA image analyzer. The contact angle was calculated by the instrument by fitting a mathematical expression to the shape of the drop followed by calculating the slope of the tangent to the drop at the liquid-solid-vapor interface line. The surface tension of ultrapure ELGA laboratory water was measured to be 73±0.5 mN·m^−1 at 25° C. All measurements were performed in air under ambient conditions and an average of four measurements was reported in the below Examples.
as §1

[3] = Particle size distribution by laser diffraction (Malvern); conditions: trihydrate
Protocol: Particle size distribution values D10, D50, D90 and D100 were determined using laser diffraction applying Malvern equipment. A suitable apparatus for determining D10, D50, D90 and D100 is a Malvern particle sizer 2600 C or a Malvern Zeta Sizer.
as §1

[4] = Powder dissolution, USP/NF paddle method with HPLC analysis; conditions: 500 mg in 900 mL water, 37 °C, 75 rpm; for Amoxicillin released in solution Mean: mean of 3; for Amoxicillin released in solution #1: replicate #1; for Amoxicillin released in solution #2: replicate #2; for Amoxicillin released in solution #3: replicate #3
Protocol: Dissolution analysis of amoxicillin trihydrate powder samples was carried out using the USP/NF paddle method at a rotational speed of 75 rpm. Ultrapure ELGA laboratory water (900 mL) was used as dissolution medium. Media were equilibrated to 37.0±0.5° C. prior to dissolution. Amoxicillin trihydrate sample powder (500 mg) was directly added to the dissolution apparatus (Electrolab USP-24, India). Samples were collected at 0, 1, 3, 5, 10, 15, 30, 60 and 90 min, filtered through 0.2 μm filters and analyzed by HPLC. Dissolution profiles were constructed by plotting the percentage amoxicillin released against time.
The HPLC system (Shimadzu Corporation, Kyoto, Japan) comprised of an SCL-10A VP system controller, LC-10AT VP liquid chromatograph, FCV-10AL VP flow control valve, DGU-14A degasser, SIL-10AD VP auto-injector, CTO-10AS VP column oven, SPD-M20A prominence diode array (PDA) detector and data acquisition Class-VP 6.10 software. The HPLC method was adopted from the United States Pharmacopoeia (USP). The method was validated for linearity, precision, accuracy and intra- and inter-day variability. The mobile phase was 50 mM monobasic potassium phosphate:methanol (96:4, v/v, pH 5.0). All analyses were carried out using Lichrospher® 100 RP-18e analytical column (5 μm, Merck KGaA, Darmstadt, Germany) under isocratic conditions at a flow rate of 1.0 mL·min^−1 at 25° C. with 20 μL injection volume. Effluent was monitored at a wavelength of 230 nm. Samples for calibration curve generation were prepared in 50 mM monobasic potassium phosphate:methanol 1:1 (v/v) proportion at a concentration range of 1 to 600 μg·mL^−1.
The three non-micronized (i.e. entries 1-3 of Table 1) and micronized (i.e. entries 4-6 of Table 1) amoxicillin trihydrate samples of Example 1 were subjected to a powder dissolution test (in triplicate) as outlined in the General section.

CC1(C)S[C@@H]2[C@H](NC(=O)[C@H](N)c3ccc(O)cc3)C(=O)N2[C@H]1C(=O)O.O.O.O [entry 3, amoxicillin trihydrate]
Surface Area Mean ± SD (n = 3) [1]: 0.72 ± 0.16 m^2 · g^−1
Contact Angle Mean ± SD (n = 4) [2]: 71.54 ± 1.08
Average Particle Size D10 [3]: 13.1 μm
Average Particle Size D50 [3]: 39.3 μm
Average Particle Size D90 [3]: 91.7 μm
Average Particle Size D100 [3]: 230.1 μm
Amoxicillin released in solution Mean ([4]; 0 min): 0%
Amoxicillin released in solution #1 ([4]; 0 min): 0%
Amoxicillin released in solution #2 ([4]; 0 min): 0%
Amoxicillin released in solution #3 ([4]; 0 min): 0%
Amoxicillin released in solution Mean ([4]; 1 min, trihydrate): 59.73%
Amoxicillin released in solution #1 ([4]; 1 min, trihydrate): 57.32%
Amoxicillin released in solution #2 ([4]; 1 min, trihydrate): 60.63%
Amoxicillin released in solution #3 ([4]; 1 min, trihydrate): 61.23%
Amoxicillin released in solution Mean ([4]; 3 min, trihydrate): 97.65%
Amoxicillin released in solution #1 ([4]; 3 min, trihydrate): 96.94%
Amoxicillin released in solution #2 ([4]; 3 min, trihydrate): 97.25%
Amoxicillin released in solution #3 ([4]; 3 min, trihydrate): 98.77%
Amoxicillin released in solution Mean ([4]; 5 min, trihydrate): 99.78%
Amoxicillin released in solution #1 ([4]; 5 min, trihydrate): 99.68%
Amoxicillin released in solution #2 ([4]; 5 min, trihydrate): 100.87%
Amoxicillin released in solution #3 ([4]; 5 min, trihydrate): 98.80%
Amoxicillin released in solution Mean ([4]; 10 min, trihydrate): 99.25%
Amoxicillin released in solution #1 ([4]; 10 min, trihydrate): 99.06%
Amoxicillin released in solution #2 ([4]; 10 min, trihydrate): 99.42%
Amoxicillin released in solution #3 ([4]; 10 min, trihydrate): 99.27%
Amoxicillin released in solution Mean ([4]; 15 min, trihydrate): 100.29%
Amoxicillin released in solution #1 ([4]; 15 min, trihydrate): 100.69%
Amoxicillin released in solution #2 ([4]; 15 min, trihydrate): 100.64%
Amoxicillin released in solution #3 ([4]; 15 min, trihydrate): 99.55%
Amoxicillin released in solution Mean ([4]; 30 min, trihydrate): 99.18%
Amoxicillin released in solution #1 ([4]; 30 min, trihydrate): 99.21%
Amoxicillin released in solution #2 ([4]; 30 min, trihydrate): 99.18%
Amoxicillin released in solution #3 ([4]; 30 min, trihydrate): 99.14%
Amoxicillin released in solution Mean ([4]; 60 min, trihydrate): 100.16%
Amoxicillin released in solution #1 ([4]; 60 min, trihydrate): 99.14%
Amoxicillin released in solution #2 ([4]; 60 min, trihydrate): 100.41%
Amoxicillin released in solution #3 ([4]; 60 min, trihydrate): 100.92%
Amoxicillin released in solution Mean ([4]; 90 min, trihydrate): 99.44%
Amoxicillin released in solution #1 ([4]; 90 min, trihydrate): 99.58%
Amoxicillin released in solution #2 ([4]; 90 min, trihydrate): 99.28%
Amoxicillin released in solution #3 ([4]; 90 min, trihydrate): 99.46%

CC1(C)S[C@@H]2[C@H](NC(=O)[C@H](N)c3ccc(O)cc3)C(=O)N2[C@H]1C(=O)O.O.O.O [entry 4, amoxicillin trihydrate]
Surface Area Mean ± SD (n = 3) [1]: 1.78 ± 0.03 m^2 · g^−1
Contact Angle Mean ± SD (n = 4) [2]: 110.68 ± 0.23
Average Particle Size D10 [3]: 1.9 μm
Average Particle Size D50 [3]: 10.1 μm
Average Particle Size D90 [3]: 23.1 μm
Average Particle Size D100 [3]: 44.6 μm
Amoxicillin released in solution Mean ([4]; 0 min): 0%
Amoxicillin released in solution #1 ([4]; 0 min): 0%
Amoxicillin released in solution #2 ([4]; 0 min): 0%
Amoxicillin released in solution #3 ([4]; 0 min): 0%
Amoxicillin released in solution Mean ([4]; 1 min, trihydrate): 56.64%
Amoxicillin released in solution #1 ([4]; 1 min, trihydrate): 54.49%
Amoxicillin released in solution #2 ([4]; 1 min, trihydrate): 57.74%
Amoxicillin released in solution #3 ([4]; 1 min, trihydrate): 57.67%
Amoxicillin released in solution Mean ([4]; 3 min, trihydrate): 77.11%
Amoxicillin released in solution #1 ([4]; 3 min, trihydrate): 76.32%
Amoxicillin released in solution #2 ([4]; 3 min, trihydrate): 76.89%
Amoxicillin released in solution #3 ([4]; 3 min, trihydrate): 78.12%
Amoxicillin released in solution Mean ([4]; 5 min, trihydrate): 84.17%
Amoxicillin released in solution #1 ([4]; 5 min, trihydrate): 85.25%
Amoxicillin released in solution #2 ([4]; 5 min, trihydrate): 82.78%
Amoxicillin released in solution #3 ([4]; 5 min, trihydrate): 84.47%
Amoxicillin released in solution Mean ([4]; 10 min, trihydrate): 87.43%
Amoxicillin released in solution #1 ([4]; 10 min, trihydrate): 88.15%
Amoxicillin released in solution #2 ([4]; 10 min, trihydrate): 86.80%
Amoxicillin released in solution #3 ([4]; 10 min, trihydrate): 87.34%
Amoxicillin released in solution Mean ([4]; 15 min, trihydrate): 89.71%
Amoxicillin released in solution #1 ([4]; 15 min, trihydrate): 90.61%
Amoxicillin released in solution #2 ([4]; 15 min, trihydrate): 89.05%
Amoxicillin released in solution #3 ([4]; 15 min, trihydrate): 89.49%
Amoxicillin released in solution Mean ([4]; 30 min, trihydrate): 93.77%
Amoxicillin released in solution #1 ([4]; 30 min, trihydrate): 93.27%
Amoxicillin released in solution #2 ([4]; 30 min, trihydrate): 95.75%
Amoxicillin released in solution #3 ([4]; 30 min, trihydrate): 91.85%
Amoxicillin released in solution Mean ([4]; 60 min, trihydrate): 98.50%
Amoxicillin released in solution #1 ([4]; 60 min, trihydrate): 97.15%
Amoxicillin released in solution #2 ([4]; 60 min, trihydrate): 99.70%
Amoxicillin released in solution #3 ([4]; 60 min, trihydrate): 98.65%
Amoxicillin released in solution Mean ([4]; 90 min, trihydrate): 99.31%
Amoxicillin released in solution #1 ([4]; 90 min, trihydrate): 97.76%
Amoxicillin released in solution #2 ([4]; 90 min, trihydrate): 99.52%
Amoxicillin released in solution #3 ([4]; 90 min, trihydrate): 100.66%
